Laboratory results published in PMC6235670, “An mTOR Signaling Modulator Suppressed Heterotopic Ossification of Fibrodysplasia Ossificans Progressiva” (Stem Cell Reports, 2018).
Where two headings read alike, the source gives them in different places.

Experiments:
ATDC5/FOP-ACVR1 cells [1] = experiment: AlamarBlue viability assay in ATDC5/FOP-ACVR1; conditions: for Viability (%) @10 μM: AlamarBlue, ATDC5/FOP-ACVR1, 10 μM
Description: (§1) Generation of ATDC5 stably expressing ACVR1. WT - or FOP-ACVR1 was inserted into doxycycline (Dox)- […]
(§2) (KW111/WT-ACVR1 or KW111/FOP-ACVR1). KW111/WT-ACVR1 or KW111/FOP-ACVR1 and PBaseII […]
(§3) FuGeneHD® (Promega) according to the manufacturer’s protocol, and the neomycin- resistant population (500 µg/mL) was selected. Further selection was performed by selecting a mCherry high positive population (< 5%) after six hours of Dox treatment, sorting it with fluorescent-activated cell sorting (FACS) using AriaII (BD) according to the manufacturer’s protocol, and designating it as ATDC5/WT-ACVR1 or ATDC5/FOP-ACVR1.
(§4) KW111 included PB, active transposable PB elements; TRE-mCMVP, Tetracycline Response Element and a minimal CMV promoter; rtTA, reverse tetracycline-controlled transactivator. PBaseII was an expression plasmid vector containing the PB transposase cDNA with optimized codon usage to human under the control […]
(§5) HTS campaign and follow-up screens. ATDC5/FOP-ACVR1 cells were plated in 96-well white plates (2,000 cells/well/40 µ L, Corning) in DMEM/F-12 supplemented with 5% (v/v) FBS. […]
(§6) 37 °C under 5% CO2. After 3 days incubation, Alkaline Phosphatase activity (ALP) or AlamarBlue activity was measured using Amplite™ Colorimetric Alkaline Phosphatase Assay Kit (AAT Bioquest) or alamarBlue® Cell Viability Reagent (Thermo Fisher Scientific) according to the manufacturer’s protocol, respectively. T h e […]
(§7) was measured on POWERSCAN4 (DS Pharma Biomedical) or EnVision® Multilabel Reader (PerkinElmer).
(§8) Inhibitory effects of the screened compounds are given as percent inhibition, which was calculated using the following equation: (1-([Abs of compound] - [Abs of Min])/([Abs of Max] - [Abs of Min]))× 100, where [Abs of Max] and [Abs of Min] are the mean Abs of DMSO control and 1 µM DMH-1, respectively. The Z’ factor, which is widely used as a measure of the assay quality of each plate, was calculated using the following equation: Z’ factor = 1 - 3 × ([SD of Max] + [SD of Min])/([Abs of Max] - [Abs of Min]) (SI Appendix, Fig.
(§9) The S/B (signal-to-background) ratio was calculated using the following equation: ([Abs of Max]/[Abs of Min]) (SI Appendix, Fig. S3B).
(§10) Using ATDC5/FOP-ACVR1 cells, we performed a first screening (n=2; test compounds = 1 µM, Fig. […]

ATDC5/FOP-ACVR1 cells [2] = experiment: ALP assay (HTS and dose-response) in ATDC5/FOP-ACVR1; assay type: cell-based, mouse; conditions: same protocol as HTS (72 h)
[3] = AlamarBlue viability assay in ATDC5/FOP-ACVR1; conditions: mouse, ATDC5 cells stably expressing FOP-ACVR1 (ATDC5/FOP-ACVR1)
Description: as §1, §2, §3, §4, §5, §6, §7, §8, §9, §10

FOP-iMSCs [4] = experiment: 2D chondrogenic induction of FOP-iMSCs with activin A (GAG, Alcian blue); assay type: cell-based, human; conditions: activin A, 7 days; for effect on GAG in the chondrogenesis of FOP-iMSCs (ERBB2 kinase inhibitors): 100 nM and 1 µM
mTOR signaling (p-S6) = experiment: p-S6 western blotting during chondrogenic induction of FOP-iMSCs with activin A; assay type: cell-based, human
Description: Western blotting. SDS- PAGE and blotting with whole-cell lysates were performed by standard procedures.
Protein bands were detected with ECL Prime Western Blotting Detection Reagent (GE Healthcare) and visualized using BIO-RAD Molecular Imager® Chemi-DocTM XRS+ with Image LabTM software (Bio-Rad).
All data (relative intensity) were corrected by β-actin.
Antibodies for western blotting and immunostaining.
N ame Company Cat. No Concentration
Human Activin RIA/ALK-2 Antibody R&D Systems) AF637 1:100
Anti-human Vimentin antibody Abcam ab16700 1:40
Collagen I Antibody Novus NB600- 1:100
Anti-rabbit IgG, HRP-linked Antibody Cell Signaling #7074 1:10000 […]
2nd Goat anti-Rabbit IgG (H+L) Secondary Antibody, Invitrogen A-11008 1:100 antibody Alexa Fluor® 488 conjugate
Goat anti-Rabbit IgG (H+L) Secondary Antibody, Invitrogen A-21428 1:500

FOP-iMSCs [5] = experiment: Microarray / pathway analysis of activin A-induced chondrogenesis of FOP-iMSCs; assay type: cell-based, human; conditions: 100 nM, 100 ng/mL Activin-A, 7 days, microarray, N = 1
Description: Microarray experiments. 2D chondrogenic induction was performed in FOP-iMSCs stimulated with or without 100 ng/mL Activin-A, TAK 165, CP-724714 and Lapatinib. Seven days after incubation, mRNA was extracted. RNA was reverse transcribed, biotin-labeled and hybridized to GeneChip Human Gene 1.0 ST Expression Array, which was subsequently washed and scanned according to the manufacturer’s instructions (Affymetrix). Raw CEL files were imported into GeneSpring GX 12.6.1 software (Agilent Technologies), and expression values were calculated with the RMA16 algorithm. Pathway analysis was performed by Ingenuity pathway analysis (Qiagen). […]

ATDC5/FOP-ACVR1 cells [6] = experiment: ALP assay (HTS and dose-response) in ATDC5/FOP-ACVR1; assay type: cell-based, mouse
Description: ATDC5/FOP-ACVR1 cells were plated in 96-well white plates (2,000 cells/well/40 μL, Corning) in DMEM/F-12 supplemented with 5% (v/v) FBS. Two hours after incubation at 37°C under 5% CO2, 10 μL of test compounds (final 1 μM) was added, and the assay plates were incubated at 37°C under 5% CO2. After 3 days of incubation, ALP activity was measured using an Amplite Colorimetric Alkaline Phosphatase Assay Kit (AAT Bioquest) according to the manufacturer's protocol.
as §1, §2
FuGeneHD® (Promega) according to the manufacturer’s protocol, and the neomycin- resistant population (500 µg/mL) was selected. […]
as §6, with “HTS campaign and follow-up screens. […]” for “37 °C under 5% CO2.”, “respectively.” for “respectively. T h e”
as §7, §8
The S/B (signal-to-background) ratio was calculated using the following equation: ([Abs of Max]/[Abs of Min]) (SI Appendix, Fig. S3B). […]

BMP signaling (BRE-Luc) = experiment: BRE-Luc reporter assay in FOP-iMSCs; assay type: cell-based, human; conditions: activin A and compounds for 16 hr
Description: (§11) FOP-iMSCs transiently transfected with BRE-Luc (A) or CAGA-Luc (B) with CMV-Renilla were stimulated with activin A and compounds for 16 hr (A) or 3 hr (B). […] One day after siRNA transfection, chondrogenic induction with activin A was initiated, and after 7 days the cells were harvested. […] FOP-iMSCs cultured with 10% FBS were treated with 100 nM rapamycin (Rapa) or TAK 165 (TAK) for 2 hr, and the cells were harvested. […] 1 μM TAK, 1 μM CP (CP-724714, another selective ERBB2 inhibitor), or 10 nM Rapa were applied in the experiments.

[7] = test system: TGF-β signaling (CAGA-Luc); experiment: CAGA-Luc reporter assay in FOP-iMSCs; assay type: cell-based, human; conditions: activin A and compounds for 3 hr
Description: as §11

## CC(C)(C)n1nc(-c2cccc3ccccc23)c2c(N)ncnc21 [1-Naphthyl PP1]
ATDC5/FOP-ACVR1 cells [1]
  Viability (%) @10 μM: 83%
ATDC5/FOP-ACVR1 cells [2]
  IC50: 12200 nM

## COc1ccc(-c2ccc3c(N4CCOC[C@@H]4C)nc(N4CCOC[C@@H]4C)nc3n2)cc1CO [AZD8055]
[3]
  viability at 3 days, 10 µM: 25%
ATDC5/FOP-ACVR1 cells [2]; Mus musculus
  IC50: 77 nM

## C=C1/C(=C\C=C2/CCC[C@]3(C)[C@@H]([C@H](C)CCCC(C)C)CC[C@@H]23)C[C@@H](O)C[C@@H]1O [Alfacalcidol]
[3]
  viability at 3 days, 10 µM: 54%
ATDC5/FOP-ACVR1 cells [2]; Mus musculus
  IC50: 526 nM

## Cn1c(=O)n(-c2ccc(C(C)(C)C#N)cc2)c2c3cc(-c4cnc5ccccc5c4)ccc3ncc21 [BEZ235]
[3]
  viability at 3 days, 10 µM: 21%
ATDC5/FOP-ACVR1 cells [2]; Mus musculus
  IC50: 87 nM

## Cc1ccc(-n2nc(C(C)(C)C)cc2NC(=O)Nc2ccc(OCCN3CCOCC3)c3ccccc23)cc1 [BIRB 796]
[3]
  viability at 3 days, 10 µM: 99%
ATDC5/FOP-ACVR1 cells [2]; Mus musculus
  IC50: 9 nM

## COCC(=O)NC/C=C/c1ccc2ncnc(Nc3ccc(Oc4ccc(C)nc4)c(C)c3)c2c1 [CP-724714]
FOP-iMSCs [4]
  effect on GAG in the chondrogenesis of FOP-iMSCs (ERBB2 kinase inhibitors): no effect
mTOR signaling (p-S6); 1 μM, 24 hr
  p-S6 after 24-hr stimulation: no effects
mTOR signaling (p-S6); 1 μM, 7 days
  p-S6 after 7 days of stimulation: not
FOP-iMSCs [5]
  ADAMTS5 expression ratio to the TAK 165-treated group: 3.1
  BMP4 expression ratio to the TAK 165-treated group: 5.2
  DKK1 expression ratio to the TAK 165-treated group: 0.2
  FOS expression ratio to the TAK 165-treated group: 3.2
  FRZB expression ratio to the TAK 165-treated group: 3.6
  FZD3 expression ratio to the TAK 165-treated group: 0.3
  ITGA3 expression ratio to the TAK 165-treated group: 3.9
  ITGB3 expression ratio to the TAK 165-treated group: 3.3
  MMP1 expression ratio to the TAK 165-treated group: 11.5
  MMP13 expression ratio to the TAK 165-treated group: 5.4
  PIK3R3 expression ratio to the TAK 165-treated group: 0.4
  SPP1 expression ratio to the TAK 165-treated group: 4.4
  TNFRSF11B expression ratio to the TAK 165-treated group: 3.4
  WIF1 expression ratio to the TAK 165-treated group: 0.1
  WNT16 expression ratio to the TAK 165-treated group: 3.0

## C=C1/C(=C\C=C2/CCC[C@]3(C)[C@@H]([C@H](C)/C=C/[C@@H](O)C4CC4)CC[C@@H]23)C[C@@H](O)C[C@@H]1O [Calcipotriol]
[3]
  viability at 3 days, 10 µM: 80%
ATDC5/FOP-ACVR1 cells [2]; Mus musculus
  IC50: 0.3 nM

## C=C1/C(=C\C=C2/CCC[C@]3(C)[C@@H]([C@H](C)CCCC(C)(C)O)CC[C@@H]23)C[C@@H](O)C[C@@H]1O [Calcitriol]
ATDC5/FOP-ACVR1 cells [6]; Mus musculus, 72 h, read-out: IC50 (ALP assay)
  IC50: 0.4 nM
[3]
  viability at 3 days, 10 µM: 81%

## CC(C)Oc1ccc(-c2cnc3c(-c4ccnc5ccccc45)cnn3c2)cc1 [DMH-1]
ATDC5/FOP-ACVR1 cells [6]; 72 hr after Dox and compound, without BMP stimulation
  ALP activity of ATDC5/FOP-ACVR1: inhibited
ATDC5/FOP-ACVR1 cells [1]; 72 hr after Dox and compound
  viability (AlamarBlue) of ATDC5/FOP-ACVR1: not
ATDC5/FOP-ACVR1 cells [1]
  Viability (%) @10 μM: 92%
ATDC5/FOP-ACVR1 cells [2]
  IC50: 21 nM

## CC(C)(C)Cn1c(N)nc2ccc(-c3[nH]c(C(C)(C)C)nc3-c3ccc(F)cc3)nc21 [LY2228820]
[3]
  viability at 3 days, 10 µM: 75%
ATDC5/FOP-ACVR1 cells [2]; Mus musculus
  IC50: 11 nM

## Nc1ncnc2c1c(-c1cccc(OCc3ccccc3)c1)cn2C1CC(CN2CCCC2)C1 (stereo not drawn) [NVP-ADW742]
ATDC5/FOP-ACVR1 cells [1]
  Viability (%) @10 μM: -1%
ATDC5/FOP-ACVR1 cells [2]
  IC50: 6570 nM

## CCN(CC)CCCCNc1ncc2cc(-c3c(Cl)cccc3Cl)c(NC(=O)NC(C)(C)C)nc2n1 [PD 161570]
ATDC5/FOP-ACVR1 cells [1]
  Viability (%) @10 μM: 63%
FOP-iMSCs [4]; 1 μM
  inhibition of glycosaminoglycan (GAG) production: potent inhibition
FOP-iMSCs [4]
  suppression of chondrogenic induction (GAG), dose dependence: dose-dependent
BMP signaling (BRE-Luc)
  BRE-Luc (BMP-specific luciferase reporter): inhibited
[7]
  CAGA-Luc (TGF-β-responsive luciferase reporter): inhibited
mTOR signaling (p-S6); 1 µM
  p-S6 levels from 2 hr after treatment: significantly inhibited
ATDC5/FOP-ACVR1 cells [2]
  IC50: 317 nM

## CCc1c2c(nc3ccc(O)cc13)-c1cc3c(c(=O)n1C2)COC(=O)[C@]3(O)CC [SN 38]
ATDC5/FOP-ACVR1 cells [1]
  Viability (%) @10 μM: 17%
ATDC5/FOP-ACVR1 cells [2]
  IC50: 98 nM

## CS(=O)(=O)CCNCc1ccc(-c2ccc3ncnc(Nc4ccc(OCc5cccc(F)c5)c(Cl)c4)c3c2)o1 [lapatinib]
FOP-iMSCs [4]
  effect on GAG in the chondrogenesis of FOP-iMSCs (ERBB2 kinase inhibitors): no effect
FOP-iMSCs [5]
  ADAMTS5 expression ratio to the TAK 165-treated group: 2.1
  BMP4 expression ratio to the TAK 165-treated group: 0.4
  DKK1 expression ratio to the TAK 165-treated group: 2.1
  FOS expression ratio to the TAK 165-treated group: 2.4
  FRZB expression ratio to the TAK 165-treated group: 3.0
  FZD3 expression ratio to the TAK 165-treated group: 0.4
  ITGA3 expression ratio to the TAK 165-treated group: 2.5
  ITGB3 expression ratio to the TAK 165-treated group: 3.6
  MMP1 expression ratio to the TAK 165-treated group: 3.0
  MMP13 expression ratio to the TAK 165-treated group: 6.9
  PIK3R3 expression ratio to the TAK 165-treated group: 2.1
  SPP1 expression ratio to the TAK 165-treated group: 3.7
  TNFRSF11B expression ratio to the TAK 165-treated group: 0.5
  WIF1 expression ratio to the TAK 165-treated group: 0.1
  WNT16 expression ratio to the TAK 165-treated group: 0.5

## pertuzumab: ERBB2-selective neutralizing antibody
FOP-iMSCs [4]; 1 µg/mL
  effect on GAG in the chondrogenesis of FOP-iMSCs (ERBB2 neutralizing antibodies): no effect
